The record followed here is patent US8568699B2, “Soft anticholinergic zwitterions” (priority 2005, dated 2013).

Structures can show the parent of a compound that is named as a salt. Where two headings read alike, the source gives them in different places. A value given as a limit tells only on which side of the number the result lay.

The target in assay [1] is T1, cloned human muscarinic receptor subtype M1 (Homo sapiens, UniProt P11229).
T1 sequence (P11229 1-460): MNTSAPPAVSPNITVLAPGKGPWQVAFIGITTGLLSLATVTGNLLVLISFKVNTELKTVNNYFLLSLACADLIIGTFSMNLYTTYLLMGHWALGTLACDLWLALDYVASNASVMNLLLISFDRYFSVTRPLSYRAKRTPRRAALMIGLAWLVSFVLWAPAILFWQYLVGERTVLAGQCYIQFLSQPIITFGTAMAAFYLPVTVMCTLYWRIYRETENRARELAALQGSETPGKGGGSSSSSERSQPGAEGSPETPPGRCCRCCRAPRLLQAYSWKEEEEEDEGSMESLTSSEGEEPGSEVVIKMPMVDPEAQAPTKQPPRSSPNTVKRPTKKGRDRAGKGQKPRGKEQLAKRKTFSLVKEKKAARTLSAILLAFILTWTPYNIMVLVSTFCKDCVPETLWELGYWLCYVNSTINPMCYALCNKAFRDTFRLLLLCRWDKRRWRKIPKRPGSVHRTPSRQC
The assay can be described thus: Receptor binding, N-[3H]-methyl-scopolamine, M1. The settings on record: numbers in parentheses.

For assay [2], the target named is T2, cloned human muscarinic receptor subtype M2 (Homo sapiens, UniProt P08172).
T2 sequence (P08172 1-466): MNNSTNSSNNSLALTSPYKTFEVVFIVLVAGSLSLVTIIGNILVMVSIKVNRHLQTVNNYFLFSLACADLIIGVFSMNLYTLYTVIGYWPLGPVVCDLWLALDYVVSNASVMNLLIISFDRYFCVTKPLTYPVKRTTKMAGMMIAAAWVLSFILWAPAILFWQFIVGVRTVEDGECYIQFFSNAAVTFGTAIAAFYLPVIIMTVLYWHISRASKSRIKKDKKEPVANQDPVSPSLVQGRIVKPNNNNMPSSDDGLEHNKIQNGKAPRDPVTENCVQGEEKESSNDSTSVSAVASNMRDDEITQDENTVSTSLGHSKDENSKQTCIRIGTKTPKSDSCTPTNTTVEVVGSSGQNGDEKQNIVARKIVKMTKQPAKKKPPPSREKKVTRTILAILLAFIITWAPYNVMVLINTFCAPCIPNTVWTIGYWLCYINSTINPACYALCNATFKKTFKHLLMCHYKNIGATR
The assay can be described thus: Receptor binding, N-[3H]-methyl-scopolamine, M2.

Assay [3] addresses T3, cloned human muscarinic receptor subtype M3 (Homo sapiens, UniProt P20309).
T3 construct: purchased Applied Cell Science Inc. (Rockville, Md.)
The assay can be described thus: Receptor binding, N-[3H]-methyl-scopolamine, M3. The settings on record: for M3 Hill slope: numbers in parentheses.

Assay [4] concerns the target T4, cloned human muscarinic receptor subtype M4 (Homo sapiens, UniProt P08173).
T4 construct: purchased Applied Cell Science Inc. (Rockville, Md.)
T4 sequence (P08173 1-479): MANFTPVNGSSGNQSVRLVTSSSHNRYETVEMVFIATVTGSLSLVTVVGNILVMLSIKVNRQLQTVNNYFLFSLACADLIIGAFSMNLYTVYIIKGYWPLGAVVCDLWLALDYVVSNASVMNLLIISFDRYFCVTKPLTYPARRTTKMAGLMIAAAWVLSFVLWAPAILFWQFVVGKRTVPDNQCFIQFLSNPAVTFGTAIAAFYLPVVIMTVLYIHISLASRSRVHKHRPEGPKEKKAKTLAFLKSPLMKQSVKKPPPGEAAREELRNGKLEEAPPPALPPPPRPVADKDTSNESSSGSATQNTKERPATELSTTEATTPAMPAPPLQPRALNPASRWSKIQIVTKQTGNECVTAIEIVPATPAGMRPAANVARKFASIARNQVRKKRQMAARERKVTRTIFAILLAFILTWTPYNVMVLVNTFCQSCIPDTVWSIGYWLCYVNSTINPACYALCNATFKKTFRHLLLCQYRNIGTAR
The assay can be described thus: Receptor binding, N-[3H]-methyl-scopolamine, M4. Conditions: numbers in parentheses.

The target of assay [5] is cloned human muscarinic receptors (M1-M4 subtypes). The assay can be described thus: Receptor binding, values stated across subtypes M1-M4.
Assay [6] concerns electrically stimulated guinea pig tracheal strips. The assay is classed as cell-based.
Assay [7] relates to muscarinic M3 cholinoceptors (guinea pig tracheal rings). The assay is classed as cell-based.
[8] abbreviates: Table 6, numbers in parentheses.
Setting [9] is: electrically stimulated guinea pig tracheal strips.
The mark [10] stands for this setting: time from washout to 20% recovery of cholinergic responses.

T3 sequence (P20309 whole entry): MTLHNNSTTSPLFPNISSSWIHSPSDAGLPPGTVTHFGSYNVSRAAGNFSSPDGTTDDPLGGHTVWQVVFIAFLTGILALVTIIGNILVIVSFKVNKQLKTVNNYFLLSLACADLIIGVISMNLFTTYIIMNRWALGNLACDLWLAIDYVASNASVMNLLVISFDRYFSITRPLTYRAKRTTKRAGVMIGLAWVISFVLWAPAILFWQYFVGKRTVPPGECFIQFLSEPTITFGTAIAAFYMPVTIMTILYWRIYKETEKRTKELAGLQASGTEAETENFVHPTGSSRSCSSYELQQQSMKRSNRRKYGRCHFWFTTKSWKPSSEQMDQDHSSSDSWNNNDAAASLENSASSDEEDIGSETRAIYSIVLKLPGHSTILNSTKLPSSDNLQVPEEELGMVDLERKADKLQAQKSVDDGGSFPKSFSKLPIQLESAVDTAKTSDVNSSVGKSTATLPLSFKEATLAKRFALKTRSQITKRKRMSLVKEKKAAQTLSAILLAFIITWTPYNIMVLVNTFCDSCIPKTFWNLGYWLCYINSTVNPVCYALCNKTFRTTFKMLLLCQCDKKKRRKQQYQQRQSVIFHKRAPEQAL

Turning to `CCOC(=O)C[N+]1(C)CC[C@H](OC(=O)[C@](O)(c2ccccc2)C2CCCC2)C1` (mixture of isomers) [Compound (j), (2R,3′S) 3(2-Cyclopentyl-2-phenyl-2-hydroxyacetoxy)-1-(ethoxycarbonylmethyl)-1-methylpyrrolidinium bromide], the “M1 Hill slope” value in assay [1] (Table 6) is recorded as “(1.21 ± 0.33)”. Besides, the “M2 Hill slope” value in assay [2] (setting [8]) is recorded as “(1.27 ± 0.11)”. In addition, the “M3/M2 muscarinic-receptor subtype-selectivity” value in assay [3] (M3 affinity relative to M2 affinity) came to 2.8±0.8 times. In assay [3] (Table 6), the “Selectivity M3/M2 (M3/M2 affinity ratio)” value stood at 2.8 ± 0.8 times and the “M3 Hill slope” value is reported as “(1.33 ± 0.16)”. The “M4 Hill slope” value in assay [4] (Table 6) is listed as “(1.15 ± 0.03)”. In addition, in assay [5], the “pKi (range over M1-M4)” value is 8.2-8.7.

As for `C[N+]1(C)CCC(OC(=O)C(O)(c2ccccc2)C2CCCC2)C1` (mixture of isomers) [glycopyrrolate, glycopyrronium bromide], the “M1 Hill slope” value in assay [1] (Table 1) and in assay [1] (Table 6) was “(1.37 ± 0.20)” throughout. In addition, the “M2 Hill slope” value is “(0.99 ± 0.11)” in assay [2] (Table 1, numbers in parentheses) and “(0.99 ± 0.11)” in assay [2] (setting [8]). The “M3 Hill slope” value in assay [3] (Table 1) and in assay [3] (Table 6) was “(1.14 ± 0.25)” each time. Further, the “M4 Hill slope” value in assay [4] (Table 1) and in assay [4] (Table 6) was “(1.02 ± 0.01)” in each case. Also, the “pKi (range over M1-M4)” value in assay [5] is given as 8.7-9.9.

As to `CN1[C@@H]2CC[C@H]1C[C@@H](OC(=O)C(CO)c1ccccc1)C2` (stereo partly shown) [Atropine], in assay [6], the t1/5 offset was 10 min and the t1/5 onset is listed as 2.5 min.

In assay [6] (setting [9]), `C[N+]1(CC(=O)[O-])[C@@H]2C[C@@H](OC(=O)C(O)(c3cccs3)c3cccs3)C[C@H]1[C@@H]1O[C@@H]12` (stereo partly drawn) [Compound (aa), 6β,7β-epoxy-3β-hydroxy-8-carboxymethyl-8-methyl-1αH,5αH-tropanium, di-2-thienylglycolate inner salt] returned a t1/5 onset of 0.9 min. In assay [6] (setting [10]), this compound gave a t1/5 offset of 27 min.

Regarding `CCOC(=O)C[N+]1(C)[C@@H]2C[C@@H](OC(=O)C(O)(c3cccs3)c3cccs3)C[C@H]1[C@@H]1O[C@@H]12` (stereo partly drawn) [Compound (w), 6β,7β-epoxy-3β-hydroxy-8-ethoxycarbonylmethyl-8-methyl-1αH,5αH-tropanium bromide, di-2-thienylglycolate], the pA2 in assay [7] (antagonism against carbachol, isolated guinea pig tracheal rings, four animals) came to 8.82. Also, the t1/5 onset in assay [6] (setting [9]) was found to be 0.6 min. In assay [6] (setting [10]), the t1/5 offset is reported as 60 min.

In turn, `CC(C)[N+]1(C)[C@@H]2CC[C@H]1CC(OC(=O)C(CO)c1ccccc1)C2.[Br-]` (stereo partly shown) [Ipratropium Br, ipratropium bromide] yielded a pA2 in assay [7] of 9.18. In assay [6], this compound came in with a t1/5 onset of 3.0 min.

In assay [6], `C[N+]1(C)[C@@H]2C[C@@H](OC(=O)C(O)(c3cccs3)c3cccs3)C[C@H]1[C@@H]1O[C@@H]12` [Tiotropium] gave a t1/5 offset of more than 360 min and a t1/5 onset of 8.0 min.

In the case of `C[N+]1(C)[C@@H]2C[C@@H](OC(=O)[C@H](CO)c3ccccc3)C[C@H]1[C@@H]1O[C@@H]12` [scopolamine methyl bromide, scopolamine methylbromide], in assay [2], the “M2 Hill slope” value is “(1.02 ± 0.02)”.

A word on the pA2: it is the negative logarithm of the molar antagonist concentration that doubles the agonist concentration needed for the same response. A low value points to a weaker antagonist.
